Patent publication US5189025A, “Methods for the treatment of malignant disease in patients using citrulline containing amino acid solutions” (priority 1990, dated 1993)
“Also recorded” adds a separate entry of the source. Where two headings read alike, the source gives them in different places.

Assays:
RBC putrescine levels = assay: RBC putrescine in tumor-bearing and non tumor-bearing rats infused with feeding solutions (Table V); conditions: vs chow or essential amino acids only
Experimental: Another experiment which utilized formulations containing amino acid precursors of RBC polyamines, compared the response of tumor-bearing rats (TB) to non tumor-bearing rats (NTB). The study was performed basically in the manner described above with the following indicated differences. […] Chow rats (C) were fed chow with no i.v. infusion.
Where N is the number of rats included in the study, PUT is RBC levels (nm/g/ml, means±SD) of putrescine determined by HPLC.

[1] = tested on: polyamine levels (erythrocyte and tumor); assay: RBC and tumor polyamine levels in tumor-bearing rats infused with amino acid solutions (Example II, Table IV); format: in vivo, male Fisher 344 rats; conditions: infusion alone, not in combination with essential amino acids; experimental tumor system
From the text: A methylcholanthrene-induced fibrosarcoma (0.17 g) was implanted as a brei into the right flank under anesthesia and the animals were fed a chow diet for 21 days. When the tumors were at least 1.0 cm in width, two-dimensional measurements with calipers were instituted and the equation, length (cm)×(width [cm])^2 ×1/2=grams of tumor tissue, was used to estimate tumor weight. […] The animals were then allowed to recover overnight and continuous infusions were started the next morning. […] Nephramine is a parenteral amino acid solution consisting of eight essential amino acids and histidine. After 6 days of continuous infusion, the animals were sacrificed by aortic bleeding. Liver and tumor were excised and weighed and kept frozen at -70° C. until assays were done. Only viable, nonnecrotic tumor tissue was saved and assayed.
Preparation of tumor tissue for polyamine assay was done in the following manner. Tumor tissue weighing 0.5 to 1.5 g was cut into small pieces and put into a disposable tube (16×100 mm). Ice-cold 4% sulfosalicylic acid was then added at 2 ml/g wet tissue. This mixture was homogenized in an ice bath for 40 seconds using the Brinkman Polytron homogenizer (P10ST generator set at 8.5). The suspension was centrifuged at 100,000 g for 30 minutes and the resulting clear supernatant was analyzed for polyamines on a Durrum D-500 amino acid analyzer.

[2] = tested on: platelet counts / host toxicity; design: species or system human (patients with advanced colorectal carcinoma); conditions: human, in vivo
From the text: FIG. 4. Platelet counts plotted against days of continuous i.v. DFMO infusion in patients with advanced colorectal carcinoma. […] The paired points are connected by a straight line.
There was no incidence of nausea, vomiting or diarrhea.

MCA sarcoma = assay: DFMO effect on growth of MCA sarcoma; format: in vivo
[3] = tested on: DFMO-induced thrombocytopenia; conditions: rat, in vivo
[4] = tested on: platelet counts / host toxicity; assay: DFMO toxicity, continuous i.v. infusion for 12 days in rats (FIG. 3); format: in vivo
From the text: FIG. 3. […] Bars indicate standard deviation.
In the above described rat model, a continuous infusion of DFMO was given through a central venous catheter.

[5] = tested on: DFMO-induced thrombocytopenia; assay: Influence of ornithine co-administration on DFMO-induced thrombocytopenia in the rat (Table VI); conditions: 12 days continuous infusion

`N=C(N)NCCC[C@H](N)C(=O)O` [arginine] was tested, and the “increase in RBC putrescine levels in NTB rats” value (RBC putrescine levels) was “significantly greater (p<0.05)” and the blood polyamine levels [1] was “has not produced elevated blood polyamine levels”.
With `NCCCC(N)(C(=O)O)C(F)F` (centres unmarked) [DFMO, Difluoromethylornithine] the White cell count [2] was “not affected by either dose”, the “decreased hearing acuity (patients)” value [2] was “two patients” and the hematocrit [2] was “Significant suppression of the hematocrit”. The “nausea, vomiting or diarrhea” value [2] was “no incidence”, the platelet suppression [2] was “platelet suppression is the major limiting host toxicity” and the “platelet suppression, 8 g compared with 6 g dose” value [2] was “significantly greater platelet suppression at the 8 g dose”. For the same molecule, the tumor regression (MCA sarcoma; MCA sarcoma) was “does not produce tumor regression”, the “growth rate of an MCA sarcoma” value (MCA sarcoma; in vivo) was “reduces the growth rate” and the Platelets [3] was 409 ± 127 × 10^3 /cu. mm. For the same molecule, the “platelet suppression / change in platelet count” value [3] was “significant decrease in platelet count as compared with the saline treatment”, the clinical toxicity ([4]; 12 day study) was “no significant clinical toxicity” and the “White cell count and hematocrit changes” value ([4]; rat, in vivo) was “not significantly altered”. For the same molecule, the “decrease in tumor putrescine levels” value (tumor putrescine levels; DFMO infusion, rat-tumor model) was 90% and the peripheral platelet counts (tumor putrescine levels; rat, in vivo) was “without suppressing peripheral platelet counts”.
In the case of `NCCC[C@H](N)C(=O)O` [ornithine], the “platelet suppression / change in platelet count” value [5] is reported as “blocked platelet suppression; also recorded: significant reversal in the platelet suppression”.
